Tests used:
Test in all cases: Weeding effect in post-emergence stage
Format in all cases: in vivo
Setaria viridis = conditions: for Weeding effect in post-emergence stage, Setaria viridis (level): fresh weight control rate level; for Weeding effect in post-emergence stage, Setaria viridis: level of fresh weight growth control rate
How it was run: (§1)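 Weeds were treated post-emergence at 2-3 leaves with compound doses from 7.5 up to 500 g/ha, formulated in acetone–Tween 80 with methyl oleate synergist. Efficacy was assessed as growth control after 3 weeks.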

Alopecurus japonicus = conditions: for Weeding effect in post-emergence stage, Alopecurus japonicus (level): fresh weight control rate level; for Weeding effect in post-emergence stage, Alopecurus japonicus: level of fresh weight growth control rate
How it was run: as §1

Abutilon theophrasti = conditions: for Weeding effect in post-emergence stage, Abutilon theophrasti (level): fresh weight control rate level; for Weeding effect in post-emergence stage, Abutilon theophrasti: level of fresh weight growth control rate
How it was run: as §1

Digitaria sanguinalis = conditions: for Weeding effect in post-emergence stage, Digitaria sanguinalis (level): fresh weight control rate level; for Weeding effect in post-emergence stage, Digitaria sanguinalis: level of fresh weight growth control rate
How it was run: as §1

Eleusine indica = conditions: for Weeding effect in post-emergence stage, Eleusine indica (level): fresh weight control rate level; for Weeding effect in post-emergence stage, Eleusine indica: level of fresh weight growth control rate
How it was run: as §1

Echinochloa crusgalli = conditions: for Weeding effect in post-emergence stage, Echinochloa crusgalli (level): fresh weight control rate level; for Weeding effect in post-emergence stage, Echinochloa crusgalli: level of fresh weight growth control rate
How it was run: as §1

| SMILES | Weeding effect in post-emergence stage, Setaria viridis (Setaria viridis; Dose 15 g/ha) | Weeding effect in post-emergence stage, Alopecurus japonicus (Alopecurus japonicus; Dose 15 g/ha) | Weeding effect in post-emergence stage, Abutilon theophrasti (Abutilon theophrasti; Dose 15 g/ha) | Weeding effect in post-emergence stage, Digitaria sanguinalis (Digitaria sanguinalis; Dose 15 g/ha) | Weeding effect in post-emergence stage, Eleusine indica (Eleusine indica; Dose 15 g/ha) | Weeding effect in post-emergence stage, Echinochloa crusgalli (Echinochloa crusgalli; Dose 15 g/ha) | also measured |
| --- | --- | --- | --- | --- | --- | --- | --- |
| C[C@@H](O/N=C/c1cc(-n2c(=O)cc(C(F)(F)F)n(C)c2=O)c(F)cc1Cl)C(N)=O [499(R)] |  |  |  |  |  |  | Weeding effect in post-emergence stage, Setaria viridis (level) (Setaria viridis; Dose 15 g/ha): 5 (Level 5: growth control rate is above 85%); Weeding effect in post-emergence stage, Alopecurus japonicus (level) (Alopecurus japonicus; Dose 15 g/ha): 5 (Level 5: growth control rate is above 85%); Weeding effect in post-emergence stage, Abutilon theophrasti (level) (Abutilon theophrasti; Dose 15 g/ha): 5 (Level 5: growth control rate is above 85%); Weeding effect in post-emergence stage, Digitaria sanguinalis (level) (Digitaria sanguinalis; Dose 15 g/ha): 5 (Level 5: growth control rate is above 85%); Weeding effect in post-emergence stage, Eleusine indica (level) (Eleusine indica; Dose 15 g/ha): 5 (Level 5: growth control rate is above 85%); Weeding effect in post-emergence stage, Echinochloa crusgalli (level) (Echinochloa crusgalli; Dose 15 g/ha): 5 (Level 5: growth control rate is above 85%) |
| CCOC(=O)[C@@H](F)O/N=C/c1cc(-n2c(=O)cc(C(F)(F)F)n(C)c2=O)c(F)cc1Cl [313(R)] | 5 (Level 5: growth control rate is above 85%) | 5 (Level 5: growth control rate is above 85%) | 5 (Level 5: growth control rate is above 85%) | 5 (Level 5: growth control rate is above 85%) | 5 (Level 5: growth control rate is above 85%) | 5 (Level 5: growth control rate is above 85%) |  |
| CCOC(=O)[C@H](OC)O/N=C/c1cc(-n2c(=O)cc(C(F)(F)F)n(C)c2=O)c(F)cc1Cl [322(R)] |  |  |  |  |  |  | Weeding effect in post-emergence stage, Setaria viridis (Setaria viridis; Dose 120 g/ha): 5 (Level 5: growth control rate is above 85%); Weeding effect in post-emergence stage, Alopecurus japonicus (Alopecurus japonicus; Dose 120 g/ha): 5 (Level 5: growth control rate is above 85%); Weeding effect in post-emergence stage, Abutilon theophrasti (Abutilon theophrasti; Dose 120 g/ha): 5 (Level 5: growth control rate is above 85%); Weeding effect in post-emergence stage, Digitaria sanguinalis (Digitaria sanguinalis; Dose 120 g/ha): 5 (Level 5: growth control rate is above 85%); Weeding effect in post-emergence stage, Eleusine indica (Eleusine indica; Dose 120 g/ha): 5 (Level 5: growth control rate is above 85%); Weeding effect in post-emergence stage, Echinochloa crusgalli (Echinochloa crusgalli; Dose 120 g/ha): 5 (Level 5: growth control rate is above 85%) |
| C/C(=N\OC(=O)[C@@H](C)O/N=C/c1cc(-n2c(=O)cc(C(F)(F)F)n(C)c2=O)c(F)cc1Cl)C1CC1 [450(R)] |  |  |  |  |  |  | Weeding effect in post-emergence stage, Setaria viridis (level) (Setaria viridis; Dose 15 g/ha): 5 (Level 5: growth control rate is above 85%); Weeding effect in post-emergence stage, Alopecurus japonicus (level) (Alopecurus japonicus; Dose 15 g/ha): 5 (Level 5: growth control rate is above 85%); Weeding effect in post-emergence stage, Abutilon theophrasti (level) (Abutilon theophrasti; Dose 15 g/ha): 5 (Level 5: growth control rate is above 85%); Weeding effect in post-emergence stage, Digitaria sanguinalis (level) (Digitaria sanguinalis; Dose 15 g/ha): 5 (Level 5: growth control rate is above 85%); Weeding effect in post-emergence stage, Eleusine indica (level) (Eleusine indica; Dose 15 g/ha): 5 (Level 5: growth control rate is above 85%); Weeding effect in post-emergence stage, Echinochloa crusgalli (level) (Echinochloa crusgalli; Dose 15 g/ha): 5 (Level 5: growth control rate is above 85%) |
| COC(=O)C(C)OC(=O)C(C)O/N=C/c1cc(-n2c(=O)cc(C(F)(F)F)n(C)c2=O)c(F)cc1Cl (stereo not drawn) [Compound 241] |  |  |  |  |  |  | Weeding effect in post-emergence stage, Setaria viridis (Setaria viridis; Dose 30 g/ha): 5 (Level 5: growth control rate is above 85%); Weeding effect in post-emergence stage, Alopecurus japonicus (Alopecurus japonicus; Dose 30 g/ha): 5 (Level 5: growth control rate is above 85%); Weeding effect in post-emergence stage, Abutilon theophrasti (Abutilon theophrasti; Dose 30 g/ha): 5 (Level 5: growth control rate is above 85%); Weeding effect in post-emergence stage, Digitaria sanguinalis (Digitaria sanguinalis; Dose 30 g/ha): 5 (Level 5: growth control rate is above 85%); Weeding effect in post-emergence stage, Eleusine indica (Eleusine indica; Dose 30 g/ha): 5 (Level 5: growth control rate is above 85%); Weeding effect in post-emergence stage, Echinochloa crusgalli (Echinochloa crusgalli; Dose 30 g/ha): 5 (Level 5: growth control rate is above 85%) |
| C[C@@H](O/N=C/c1cc(-n2c(=O)n(C)c(=S)n(C)c2=O)c(F)cc1Cl)C(=O)OCCCF [11(R)] | 5 (Level 5: growth control rate is above 85%) | 5 (Level 5: growth control rate is above 85%) | 5 (Level 5: growth control rate is above 85%) | 5 (Level 5: growth control rate is above 85%) | 5 (Level 5: growth control rate is above 85%) | 5 (Level 5: growth control rate is above 85%) |  |
| C[C@@H](O/N=C/c1cc(-n2c(=O)cc(C(F)(F)F)n(C)c2=O)c(F)cc1Cl)C(=O)OCc1cccc(F)c1 [285(R)] |  |  |  |  |  |  | Weeding effect in post-emergence stage, Setaria viridis (Setaria viridis; Dose 30 g/ha): 5 (Level 5: growth control rate is above 85%); Weeding effect in post-emergence stage, Alopecurus japonicus (Alopecurus japonicus; Dose 30 g/ha): 5 (Level 5: growth control rate is above 85%); Weeding effect in post-emergence stage, Abutilon theophrasti (Abutilon theophrasti; Dose 30 g/ha): 5 (Level 5: growth control rate is above 85%); Weeding effect in post-emergence stage, Digitaria sanguinalis (Digitaria sanguinalis; Dose 30 g/ha): 5 (Level 5: growth control rate is above 85%); Weeding effect in post-emergence stage, Eleusine indica (Eleusine indica; Dose 30 g/ha): 5 (Level 5: growth control rate is above 85%); Weeding effect in post-emergence stage, Echinochloa crusgalli (Echinochloa crusgalli; Dose 30 g/ha): 5 (Level 5: growth control rate is above 85%) |
| C[C@@H](O/N=C/c1cc(-n2c(=O)n(C)c(=S)n(C)c2=O)c(F)cc1Cl)C(=O)OCc1ccncc1 [60(R)] | 5 (Level 5: growth control rate is above 85%) | 4 (Level 4: growth control rate is greater than or equal to 60% and less than 85%) | 5 (Level 5: growth control rate is above 85%) | 5 (Level 5: growth control rate is above 85%) | 5 (Level 5: growth control rate is above 85%) | 5 (Level 5: growth control rate is above 85%) |  |
| C[C@@H](O/N=C/c1cc(-n2c(=O)n(C)c(=S)n(C)c2=O)c(F)cc1Cl)C(=O)OCc1ccccc1 [42(R)] | 5 (Level 5: growth control rate is above 85%) | 4 (Level 4: growth control rate is greater than or equal to 60% and less than 85%) | 5 (Level 5: growth control rate is above 85%) | 5 (Level 5: growth control rate is above 85%) | 5 (Level 5: growth control rate is above 85%) | 5 (Level 5: growth control rate is above 85%) |  |
| CCCCOCCOC(=O)C(C)O/N=C/c1cc(-n2c(=O)cc(C(F)(F)F)n(C)c2=O)c(F)cc1Cl (stereo not drawn) [Compound 232] | 5 (Level 5: growth control rate is above 85%) | 5 (Level 5: growth control rate is above 85%) | 5 (Level 5: growth control rate is above 85%) | 5 (Level 5: growth control rate is above 85%) | 5 (Level 5: growth control rate is above 85%) | 5 (Level 5: growth control rate is above 85%) |  |
| CCC(O/N=C/c1cc(-n2c(=O)cc(C(F)(F)F)n(C)c2=O)c(F)cc1Cl)C(=O)OC (stereo not drawn) [Compound 315] | 5 (Level 5: growth control rate is above 85%) | 5 (Level 5: growth control rate is above 85%) | 5 (Level 5: growth control rate is above 85%) | 5 (Level 5: growth control rate is above 85%) | 5 (Level 5: growth control rate is above 85%) | 5 (Level 5: growth control rate is above 85%) |  |
| CCOCCOC(=O)[C@@H](C)O/N=C/c1cc(-n2c(=O)cc(C(F)(F)F)n(C)c2=O)c(F)cc1Cl [231(R)] | 5 (Level 5: growth control rate is above 85%) | 5 (Level 5: growth control rate is above 85%) | 5 (Level 5: growth control rate is above 85%) | 5 (Level 5: growth control rate is above 85%) | 5 (Level 5: growth control rate is above 85%) | 5 (Level 5: growth control rate is above 85%) |  |
| CC(ON=Cc1cc(-n2c(=O)cc(C(F)(F)F)n(C)c2=O)c(F)cc1Cl)C(=O)NS(=O)(=O)CCl (stereo not drawn) [Compound 503] |  |  |  |  |  |  | Weeding effect in post-emergence stage, Setaria viridis (level) (Setaria viridis; Dose 15 g/ha): 5 (Level 5: growth control rate is above 85%); Weeding effect in post-emergence stage, Alopecurus japonicus (level) (Alopecurus japonicus; Dose 15 g/ha): 5 (Level 5: growth control rate is above 85%); Weeding effect in post-emergence stage, Abutilon theophrasti (level) (Abutilon theophrasti; Dose 15 g/ha): 5 (Level 5: growth control rate is above 85%); Weeding effect in post-emergence stage, Digitaria sanguinalis (level) (Digitaria sanguinalis; Dose 15 g/ha): 5 (Level 5: growth control rate is above 85%); Weeding effect in post-emergence stage, Eleusine indica (level) (Eleusine indica; Dose 15 g/ha): 5 (Level 5: growth control rate is above 85%); Weeding effect in post-emergence stage, Echinochloa crusgalli (level) (Echinochloa crusgalli; Dose 15 g/ha): 5 (Level 5: growth control rate is above 85%) |
| CC(=NC(=O)C(C)ON=Cc1cc(-n2c(=O)cc(C(F)(F)F)n(C)c2=O)c(F)cc1Cl)c1ccccc1 (stereo not drawn) [Compound 453] |  |  |  |  |  |  | Weeding effect in post-emergence stage, Setaria viridis (level) (Setaria viridis; Dose 30 g/ha): 5 (Level 5: growth control rate is above 85%); Weeding effect in post-emergence stage, Alopecurus japonicus (level) (Alopecurus japonicus; Dose 30 g/ha): 5 (Level 5: growth control rate is above 85%); Weeding effect in post-emergence stage, Abutilon theophrasti (level) (Abutilon theophrasti; Dose 30 g/ha): 5 (Level 5: growth control rate is above 85%); Weeding effect in post-emergence stage, Digitaria sanguinalis (level) (Digitaria sanguinalis; Dose 30 g/ha): 5 (Level 5: growth control rate is above 85%); Weeding effect in post-emergence stage, Eleusine indica (level) (Eleusine indica; Dose 30 g/ha): 5 (Level 5: growth control rate is above 85%); Weeding effect in post-emergence stage, Echinochloa crusgalli (level) (Echinochloa crusgalli; Dose 30 g/ha): 5 (Level 5: growth control rate is above 85%) |
| C[C@@H](O/N=C/c1cc(-n2c(=O)n(C)c(=S)n(C)c2=O)c(F)cc1Cl)C(=O)OCC1CC1 [9(R)] | 5 (Level 5: growth control rate is above 85%) | 5 (Level 5: growth control rate is above 85%) | 5 (Level 5: growth control rate is above 85%) | 5 (Level 5: growth control rate is above 85%) | 5 (Level 5: growth control rate is above 85%) | 5 (Level 5: growth control rate is above 85%) |  |
